Measured values taken from ChEMBL document CHEMBL3885861, “Open TG-GATES”.

Species: Rattus norvegicus
Experiment: Open TG-GATES - Regimen: Single
Assay type: toxicity, organism-based, Sprague-Dawley
Parameters: regimen Single, gender Male, age 6 weeks
Settings: in vivo, po, 1000 mg/kg, route gavage, dose level High; for APTT / Bas / Eos / Fbg / Hb / Ht / Lym / MCH / MCHC / MCV / Mono / Neu / PT / Plat / RBC / Ret / WBC: tissue Blood; for KIDNEY_L / KIDNEY_R / KIDNEY_TOTAL: tissue Kidney; for LIVER: tissue Liver; for A/G / ALP / ALT / AST / BUN / CRE / Ca / Cl / DBIL / GLC / IP / K / LDH / Na / PL / RALB / TBIL / TC / TG / TP / gamma-GTP: tissue Plasma

O=C(O)COc1nn(Cc2ccccc2)c2ccccc12 [BENDAZAC]
TERMINAL_BW (3 h): 213.4 g
APTT (3 h): 16.9 s
Bas (3 h): 0%
Eos (3 h): 1.2%
Fbg (3 h): 207.6 mg/dL
Hb (3 h): 13.6 g/dL
Ht (3 h): 40.3%
Lym (3 h): 74%
MCH (3 h): 21.9 pg
MCHC (3 h): 33.7%
MCV (3 h): 65.1 fL
Mono (3 h): 7.8%
Neu (3 h): 16.8%
PT (3 h): 11.3 s
Plat (3 h): 130.3 x10_4/uL
RBC (3 h): 620.2 x10_4/ul
Ret (3 h): 12%
WBC (3 h): 92.8 x10_2/uL
KIDNEY_L (3 h): 1 g
KIDNEY_R (3 h): 1 g
KIDNEY_TOTAL (3 h): 2 g
LIVER (3 h): 9.7 g
A/G (3 h): 2.2
ALP (3 h): 1482.6 IU/L
ALT (3 h): 35.2 IU/L
AST (3 h): 67.8 IU/L
BUN (3 h): 12.2 mg/dL
CRE (3 h): 0.5 mg/dL
Ca (3 h): 10.6 mg/dL
Cl (3 h): 100.2 meq/L
DBIL (3 h): 0.04 mg/dL
GLC (3 h): 195.2 mg/dL
IP (3 h): 10.1 mg/dL
K (3 h): 4.8 meq/L
LDH (3 h): 99.8 IU/L
Na (3 h): 140 meq/L
PL (3 h): 133.6 mg/dL
RALB (3 h): 3.7 g/dL
TBIL (3 h): 1.4 mg/dL
TC (3 h): 73.2 mg/dL
TG (3 h): 42.2 mg/dL
TP (3 h): 5.4 g/dL
gamma-GTP (3 h): 1.2 IU/L
TERMINAL_BW (6 h): 205.5 g
APTT (6 h): 17.1 s
Bas (6 h): 0%
Eos (6 h): 1.2%
Fbg (6 h): 215.4 mg/dL
Hb (6 h): 14 g/dL
Ht (6 h): 41.8%
Lym (6 h): 68.2%
MCH (6 h): 22.1 pg
MCHC (6 h): 33.5%
MCV (6 h): 66 fL
Mono (6 h): 8%
Neu (6 h): 23.4%
PT (6 h): 11.8 s
Plat (6 h): 126.4 x10_4/uL
RBC (6 h): 633.4 x10_4/ul
Ret (6 h): 14.3%
WBC (6 h): 86.8 x10_2/uL
KIDNEY_L (6 h): 0.9 g
KIDNEY_R (6 h): 0.9 g
KIDNEY_TOTAL (6 h): 1.9 g
LIVER (6 h): 8.6 g
A/G (6 h): 2.1
ALP (6 h): 2888.2 IU/L
ALT (6 h): 33.8 IU/L
AST (6 h): 67.4 IU/L
BUN (6 h): 10.6 mg/dL
CRE (6 h): 0.6 mg/dL
Ca (6 h): 10.5 mg/dL
Cl (6 h): 100 meq/L
DBIL (6 h): 0.046 mg/dL
GLC (6 h): 189.8 mg/dL
IP (6 h): 10.8 mg/dL
K (6 h): 4.5 meq/L
LDH (6 h): 114.6 IU/L
Na (6 h): 141 meq/L
PL (6 h): 138 mg/dL
RALB (6 h): 3.7 g/dL
TBIL (6 h): 1.5 mg/dL
TC (6 h): 83 mg/dL
TG (6 h): 21.2 mg/dL
TP (6 h): 5.4 g/dL
gamma-GTP (6 h): 0.8 IU/L
TERMINAL_BW (9 h): 202.5 g
APTT (9 h): 17.9 s
Bas (9 h): 0%
Eos (9 h): 1%
Fbg (9 h): 213.4 mg/dL
Hb (9 h): 13.6 g/dL
Ht (9 h): 40.7%
Lym (9 h): 79.6%
MCH (9 h): 21.7 pg
MCHC (9 h): 33.5%
MCV (9 h): 64.9 fL
Mono (9 h): 7.4%
Neu (9 h): 12.2%
PT (9 h): 11.8 s
Plat (9 h): 120.8 x10_4/uL
RBC (9 h): 627.8 x10_4/ul
Ret (9 h): 8%
WBC (9 h): 71.1 x10_2/uL
KIDNEY_L (9 h): 0.9 g
KIDNEY_R (9 h): 1 g
KIDNEY_TOTAL (9 h): 1.9 g
LIVER (9 h): 7.9 g
A/G (9 h): 2.1
ALP (9 h): 5387.2 IU/L
ALT (9 h): 28 IU/L
AST (9 h): 63.6 IU/L
BUN (9 h): 11.2 mg/dL
CRE (9 h): 0.6 mg/dL
Ca (9 h): 10.3 mg/dL
Cl (9 h): 100.8 meq/L
DBIL (9 h): 0.032 mg/dL
GLC (9 h): 177.6 mg/dL
IP (9 h): 10 mg/dL
K (9 h): 4.6 meq/L
LDH (9 h): 92.8 IU/L
Na (9 h): 141.6 meq/L
PL (9 h): 129.8 mg/dL
RALB (9 h): 3.7 g/dL
TBIL (9 h): 1.5 mg/dL
TC (9 h): 75.8 mg/dL
TG (9 h): 30.2 mg/dL
TP (9 h): 5.5 g/dL
gamma-GTP (9 h): 1 IU/L
TERMINAL_BW (24 h): 203.6 g
APTT (24 h): 16.8 s
Bas (24 h): 0%
Eos (24 h): 1.6%
Fbg (24 h): 193 mg/dL
Hb (24 h): 14 g/dL
Ht (24 h): 41.8%
Lym (24 h): 77%
MCH (24 h): 21.6 pg
MCHC (24 h): 33.4%
MCV (24 h): 64.6 fL
Mono (24 h): 6.6%
Neu (24 h): 15.2%
PT (24 h): 13.1 s
Plat (24 h): 133.3 x10_4/uL
RBC (24 h): 647.6 x10_4/ul
Ret (24 h): 10.7%
WBC (24 h): 92.1 x10_2/uL
KIDNEY_L (24 h): 1 g
KIDNEY_R (24 h): 1 g
KIDNEY_TOTAL (24 h): 1.9 g
LIVER (24 h): 9 g
A/G (24 h): 2.4
ALP (24 h): 6419.2 IU/L
ALT (24 h): 31.2 IU/L
AST (24 h): 58 IU/L
BUN (24 h): 12.6 mg/dL
CRE (24 h): 0.7 mg/dL
Ca (24 h): 10.7 mg/dL
Cl (24 h): 99 meq/L
DBIL (24 h): 0.056 mg/dL
GLC (24 h): 180.6 mg/dL
IP (24 h): 8.6 mg/dL
K (24 h): 4.3 meq/L
LDH (24 h): 104.4 IU/L
Na (24 h): 140.2 meq/L
PL (24 h): 110.8 mg/dL
RALB (24 h): 3.9 g/dL
TBIL (24 h): 1.9 mg/dL
TC (24 h): 63.8 mg/dL
TG (24 h): 31.6 mg/dL
TP (24 h): 5.5 g/dL
gamma-GTP (24 h): 0.8 IU/L
